Legend:
Caspase 1 = Caspase 1 (Homo sapiens, UniProt P29466); test: Active caspase-1 FLICA flow cytometry, whole blood from COVID-19 (+) patients incubated with Emricasan (Example 7); format: cell-based; parameters: dose or concentration left out as unconfirmed; conditions: 17 hours (overnight) room temperature on a rocker, 3 samples from COVID-19 patients
Method: Whole blood from COVID-19 (+) patients was incubated either (A) without addition of Emricasan (Untreated) or (B) with Emricasan (Sigma Aldrich, MO, SML2227-5 MG), 1 μM final concentration for 3.5 hours at room temperature (Treated). Following incubation with or without Emricasan, PBMCs were purified using an Accuspin System—Histopaque 1077 (Sigma Aldrich, MO, A6929) as per the manufacturer's instructions. Purified Treated and Untreated PBMCs were incubated with nigericin (Immunochemistry Technologies, MN) as per the manufacturer's instructions for 2 hours. […] PMBCs were washed with cell wash buffer (Immunochemistry Technologies, MN) to remove unbound FLICA probes. Washed PBMCs were FACS-sorted using CD45 PE-CY7 [HI30], CD3 AF700 [UCHT1], CD4 PE [RPA-T4], CD45RO PerCP-EF710 [UCHL1], and Viability Dye 780 (Thermo Fisher Scientific, Carlsbad, CA) to identify viable CD3-cells as well as CD3+ cells and CD3+CD4+ T cells. Lymphocytes were identified using a standard gating schematic that incorporated gating of lymphocytes on a FSC/SSC plot and singlets on a FSC-A/FSC-H plot. Lymphocytes were further identified as CD45+ on a CD45/SSC plot and subsequent CD3−, CD3+, and CD3+CD4+ cells were identified on a CD45+CD3/CD4 plot.
In another experiment, whole blood was incubated with […] Emricasan for 17 hours (overnight between 5 PM to 10 AM) at room temperature on a rocker. […]

mild COVID-19 = test: Phase 1 double-blinded placebo-controlled safety and tolerability study in symptomatic outpatient mild-COVID-19 patients (Example 10); format: in vivo, human
Method: A double-blinded, placebo-controlled randomized safety and tolerability study (1:1 active: placebo) was performed in a number symptomatic outpatient mild-COVID-19 patients receiving standard of care therapy. A total of 13 patients were enrolled at a single site in New York City. Treatment involved administering Emricasan (EMR) (or placebo) at 25 mg BID dosing for 14 days, with follow-up for an additional month. […] This study was thus designed to evaluate safety and tolerability, with the primary endpoint being the difference, if any, between treatment-related adverse events (AEs), including severe adverse events (SAEs), if any, in the active (EMR) and placebo groups through day 14. The pharmacokinetics (PK) of EMR has been extensively studied in earlier clinical trials. Accordingly, patients in this Phase 1 study were sampled at the end of the study to confirm that Emricasan pharmacokinetics was not altered in COVID-19 patients. Secondary endpoints included various clinical and laboratory measures and patient reported outcomes (PROs) using a COVID-19-related assessment tool.

caspase-1 = biological target: T1, caspase-1 (Homo sapiens, UniProt P29466); test: Ex vivo active caspase-1 in CD4 T cells, whole blood incubated with caspase inhibitors with or without nigericin (Example 9); format: cell-based; conditions: inhibitor incubation, 24 hrs later with or without nigericin; for T-helper cell caspase-1 expression: COVID-19 whole blood samples
T1 sequence (P29466 120-297 limits assumed): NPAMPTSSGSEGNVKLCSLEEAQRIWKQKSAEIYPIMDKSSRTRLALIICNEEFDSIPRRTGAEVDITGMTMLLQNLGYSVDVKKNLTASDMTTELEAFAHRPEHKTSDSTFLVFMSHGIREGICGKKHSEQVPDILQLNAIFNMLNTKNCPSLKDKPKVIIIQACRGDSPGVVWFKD
T1 sequence (P29466 317-404 limits assumed): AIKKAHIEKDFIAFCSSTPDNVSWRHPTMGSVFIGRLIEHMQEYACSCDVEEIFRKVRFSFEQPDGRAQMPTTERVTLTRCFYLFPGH

[1] = test system: red blood cell (RBC) layer in the PBMC layer (RBC aggregation); test: “Red ring” (contaminating RBC layer in PBMC layer) in COVID-19 patient samples; format: cell-based, human; conditions: PBMCs from COVID-19 patient samples, 1 micromolar, room temperature, 17 hours
Source text: One of the observations made during the preparation of peripheral blood mononuclear cells (PBMC) for some of the experiments described herein was the presence of a contaminating red blood cell (RBC) layer in the PBMC layer, which was referred to as a “red ring”. This “red ring” was present in all COVID-19 patient samples, with no difference between critically ill patients and those who were only on supportive care outside the ICU setting (see FIG. 12A).
When PBMCs isolated from COVID-19 patient samples were incubated with Emricasan (1 micromolar) at room temperature for 17 hours, a decrease in the “red ring” was observed.

[2] = biological target: T2, main protease of SARS-COV-2 (Severe acute respiratory syndrome coronavirus 2, UniProt P0DTD1); conditions: subsequent reports; cited from earlier work
T2 construct: the main protease of SARS-COV-2

caspase-3 = biological target: T3, caspase-3 (Homo sapiens, UniProt P42574); test: Caspase-3 in red blood cells incubated with patient plasma (Example 9); format: cell-based
T3 construct: endogenous in cells; host or cells: human red blood cells incubated with patient plasma
T3 sequence (P42574 29-175 limits assumed): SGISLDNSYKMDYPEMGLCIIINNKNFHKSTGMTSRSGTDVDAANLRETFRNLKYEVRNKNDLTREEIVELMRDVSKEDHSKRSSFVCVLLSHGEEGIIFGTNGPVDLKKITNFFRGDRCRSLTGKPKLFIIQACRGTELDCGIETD
T3 sequence (P42574 176-277 limits assumed): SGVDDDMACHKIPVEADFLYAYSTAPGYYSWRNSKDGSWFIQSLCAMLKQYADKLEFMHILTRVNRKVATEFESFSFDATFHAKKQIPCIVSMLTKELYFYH

[3] = in vivo; cited from earlier work
ACE-2 receptor = conditions: subsequent reports; cited from earlier work

SMILES	samples showing inhibition of nigericin-induced Caspase-1 activity (Caspase 1)	serious adverse events (mild COVID-19; 25 mg BID 14 days, mild COVID-19 outpatients)	safety and tolerability (mild COVID-19; 25 mg BID 14 days, during 2 weeks of dosing and at week 10 follow up, compared to placebo)	resolution of symptoms most commonly associated with mild COVID-19 (cough, headache, fatigue) (mild COVID-19; patients who completed treatment, at day 7, continued through Day 45)	T-helper cell caspase-1 expression (caspase-1)	T-helper cell caspase-1 upregulation (caspase-1; healthy subjects' whole blood)	“red ring” (contaminating RBC layer in PBMC layer) [1]	inhibition of main protease activity [2]	RBC caspase-3 up-regulation (caspase-3; healthy subjects' RBCs, COVID-19 plasma incubated samples)	RBC baseline caspase-3 expression levels (caspase-3; influenza-plasma incubated samples)	safety and tolerance profile [3]	inhibition of ACE-2 receptor binding activity for SARS-COV-2 (ACE-2 receptor)
C[C@H](NC(=O)C(=O)Nc1ccccc1C(C)(C)C)C(=O)N[C@@H](CC(=O)O)C(=O)COc1c(F)c(F)cc(F)c1F [Emricasan, (3S)-3-{[(2S)-2-{[2-(2-tert-butylanilino)-2-oxoacetyl]amino}propanoyl]amino}-4-oxo-5-(2,3,5,6-tetrafluorophenoxy) pentanoic acid]	⅓	no reports of serious adverse events	safe and well tolerated	complete resolution	suppressed	prevented its upregulation	decrease	may also inhibit	suppressed	did not change	excellent safety and tolerance profile	inhibit the binding activity
CCO[C@@H]1OC(=O)C[C@@H]1NC(=O)[C@@H]1CCCN1C(=O)[C@@H](NC(=O)c1ccc(N)c(Cl)c1)C(C)(C)C [VX765, Belnacasan]					did not show a strong similar suppressive effect							

— patent publication US20250288547A1, “TREATMENT OF DISEASES CAUSED BY RNA VIRUSES” (Amerimmune LLC, priority 2021, published 2025)
